Data as given in ChEMBL document CHEMBL1201862, “PubChem BioAssay data set” (2004).
Counter-ions that a name gives are not always drawn. One block for each molecule: values may come before it. Calls of active or inactive are those of the source.

Key:
[1] = reduction of Shn3 3'UTR-driven luciferase in osteoblasts – cell-based, Clone20 osteoblasts, firefly luciferase, cherry-picked, dose response (AID 624132); type: functional;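 note: firefly luciferase luminescence from reporter carrying the Shn3 3'UTR in osteoblasts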
[2] = loss of viability in HepG2 cells – cell-based, CellTiter-Glo, cherry-picked, cytotoxicity control for Shn3 inhibitor project, dose response (AID 624134); type: functional
[3] = non-specific 3'UTR reporter inhibition in Clone20-Shn3RL – cell-based, Renilla luciferase, cherry-picked, counter-screen for Shn3 inhibitor project, dose response (AID 624133); type: functional
Protein Wnt-3a [4] = target: T1, Protein Wnt-3a (Mus musculus, UniProt P27467); assay: antagonism of Wnt3a pathway luciferase reporter – Wnt-LIGHT cells, luminescence, selectivity assay for Gli-SUFU antagonist project, dose response (AID 651570); type: functional; details: read-out: IC50_Mean;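 note: Wnt-LIGHT reporter cells stimulated with conditioned medium from Wnt3a-producing cells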
T1 sequence (P27467 whole entry): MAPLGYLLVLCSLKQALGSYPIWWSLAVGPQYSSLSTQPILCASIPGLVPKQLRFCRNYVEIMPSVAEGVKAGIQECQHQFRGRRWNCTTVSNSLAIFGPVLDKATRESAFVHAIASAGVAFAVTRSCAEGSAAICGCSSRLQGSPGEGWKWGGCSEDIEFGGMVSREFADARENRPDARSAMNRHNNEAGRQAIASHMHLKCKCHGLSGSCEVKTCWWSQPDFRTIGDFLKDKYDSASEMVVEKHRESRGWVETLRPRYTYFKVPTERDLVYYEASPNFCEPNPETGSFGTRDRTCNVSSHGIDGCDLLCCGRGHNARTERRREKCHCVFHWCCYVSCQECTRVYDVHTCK

[5] = Shn3 3'UTR reporter signal decrease – cell-based, Clone20 osteoblasts, firefly luciferase, cherry-pick, set 2, Schnurri-3 inhibitor project, dose response (AID 720490); type: functional;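 note: actives lower the luminescence signal as inhibitors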
[6] = EF1alpha-driven Renilla reporter with control 3'UTR suppression – Clone20-Shn3RL cells, dual-Glo, cherry-pick, set 2, counter-screen for Shn3 3'UTR targeting project, dose response (AID 720724); type: functional, cell-based; details: Dual-Go Shn3RL
[7] = HGIII-sPLA2 enzyme inhibition potency – biochemical, QFRET, IC50, dose response (AID 743457);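 note: green fluorescence rise as the enzyme cleaves BODIPY PC-A2 in liposomes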
[8] = viability loss in HepG2 hepatoma cells – cell-based, ATP luminescence, cherry-pick, activator set 2, cytotoxicity control, dose response (AID 1053143); type: functional
[9] = viability loss in THP-1 monocytes – THP-1 cells, cytotoxicity control for Vif-APOBEC3G degradation inhibitor project, dose response (AID 1117359); type: functional; details: THP-1
[10] = Late stage assay provider results from the probe development effort to identify inhibitors of the Plasmodium falciparum M18 Aspartyl Aminopeptidase (M18AAP): radiolabel-based cell-based dose response assay to identify compounds that inhibit P. falciparum growth in RBCs, Set 2..; type: functional
[11] = activation of miR-122 Renilla sensor silencing – cell-based, Huh7 psiCHECK-miR122, Renilla luciferase, cherry-picked, dose response (AID 651956); type: functional;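 note: huh7 hepatoma cells stably carrying a psiCHECK-2 miR-122 sensor plasmid; renilla luciferase signal reporting endogenous miR-122 activity after 48 h compound exposure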
[12] = general mammalian cell viability loss – activator set, cherry-pick, cytotoxicity control for miR-122 modulator project, dose response (AID 720690); type: functional, cell-based;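 note: HEK293T human cells scored for general mammalian cytotoxicity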
[13] = target: Metabotropic glutamate receptor 5 (Rattus norvegicus, UniProt P31424); assay: Identification of a glycine sulfonamide based non-MPEP site positive allosteric potentiator (PAM) of mGlu5 (calcium_assay).; type: functional
Sequence of Metabotropic glutamate receptor 5 (P31424 whole entry, the tested form may be a part): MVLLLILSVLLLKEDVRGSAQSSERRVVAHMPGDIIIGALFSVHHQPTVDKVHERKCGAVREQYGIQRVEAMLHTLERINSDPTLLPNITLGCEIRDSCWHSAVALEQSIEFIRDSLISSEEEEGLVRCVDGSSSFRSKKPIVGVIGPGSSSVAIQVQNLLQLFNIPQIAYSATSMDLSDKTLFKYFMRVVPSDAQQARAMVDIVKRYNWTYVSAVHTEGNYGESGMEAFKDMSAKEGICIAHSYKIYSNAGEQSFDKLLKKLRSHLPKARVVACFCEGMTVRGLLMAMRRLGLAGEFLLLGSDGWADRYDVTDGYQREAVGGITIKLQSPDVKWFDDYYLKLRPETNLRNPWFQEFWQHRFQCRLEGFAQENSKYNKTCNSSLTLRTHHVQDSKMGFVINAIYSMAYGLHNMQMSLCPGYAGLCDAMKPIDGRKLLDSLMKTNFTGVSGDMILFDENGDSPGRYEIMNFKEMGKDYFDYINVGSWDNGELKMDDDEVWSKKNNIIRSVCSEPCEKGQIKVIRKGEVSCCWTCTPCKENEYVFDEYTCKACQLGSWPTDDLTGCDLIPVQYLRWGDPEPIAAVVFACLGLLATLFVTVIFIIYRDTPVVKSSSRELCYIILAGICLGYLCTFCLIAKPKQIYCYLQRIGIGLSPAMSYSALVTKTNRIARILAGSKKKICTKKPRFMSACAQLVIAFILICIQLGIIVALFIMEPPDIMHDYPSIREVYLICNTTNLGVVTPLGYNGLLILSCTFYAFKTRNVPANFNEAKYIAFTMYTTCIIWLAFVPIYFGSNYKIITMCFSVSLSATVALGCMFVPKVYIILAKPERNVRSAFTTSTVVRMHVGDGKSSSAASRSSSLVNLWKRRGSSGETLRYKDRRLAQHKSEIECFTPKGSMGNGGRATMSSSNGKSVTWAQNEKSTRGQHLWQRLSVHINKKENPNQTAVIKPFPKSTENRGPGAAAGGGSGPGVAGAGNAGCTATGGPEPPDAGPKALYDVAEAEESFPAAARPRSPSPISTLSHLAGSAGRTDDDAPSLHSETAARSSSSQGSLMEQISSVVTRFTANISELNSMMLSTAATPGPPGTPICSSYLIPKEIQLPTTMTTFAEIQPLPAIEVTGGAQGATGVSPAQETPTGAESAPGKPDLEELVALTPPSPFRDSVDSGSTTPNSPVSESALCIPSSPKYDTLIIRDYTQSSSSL

[14] = blockers of HIV-1 envelope-mediated cell-cell fusion – cherry-pick, dose response (AID 652057); type: functional, cell-based
[15] = viability loss in CEM21 cells – cell-based, CellTiter-Glo luminescence, cherry-picked, cytotoxicity control for viral fusion inhibitor project, dose response (AID 652042); type: functional;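 note: potency for signal decrease meaning cytotoxicity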
[16] = blockers of HIV-1 ZM109 envelope-driven cell-cell fusion – HeLa effector, CEM target cells, luciferase, cherry-pick, dose response (AID 652058); type: functional, cell-based;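 note: luciferase signal from HIV-1 Env mediated cell-cell fusion of effector and target cells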
[17] = inhibition of Env-driven cell fusion – HIV entry, plate reader, dry powder, dose response (AID 687023); type: functional, cell-based
[18] = viability loss in CEM21 cells – cell-based, plate reader, dry powder, cytotoxicity control, dose response (AID 687026); type: functional
HeLa [19] = assay: viability loss in HeLa cells – cell-based, ATP luminescence, cherry-pick samples, cytotoxicity control, dose response (AID 687004); type: functional; details: Homo sapiens
[20] = viability loss in A549 lung cells – cell-based, 24 h, CellTiter-Glo luminescence, cherry-picks, cytotoxicity control, dose response (AID 1053115); type: functional; details: A549, 24 h
[21] = P. falciparum Dd2 growth inhibitors, dose response, SYBR Green, cherry-picked samples (AID 1159567); type: functional, cell-based
[22] = toxicity to human hepatoma HepG2 cells – cell-based, cherry-picked samples, cytotoxicity control, dose response (AID 1159577); type: functional
HEK293 = assay: viability loss in HEK293T cells – cell-based, ATP luminescence, cherry-pick samples, cytotoxicity control, dose response (AID 687005); type: functional; details: Homo sapiens;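 note: cells exposed to compound for 48 hours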
[23] = HEK293 Cytotoxicity Assay Measured in Cell-Based System Using Plate Reader - 7071-01_Inhibitor_Dose_CherryPick_Activity_Set2.; type: functional
[24] = anti-trypanosomal activity in BESM host cells – imaging, CA-I/72 strain, bovine embryo skeletal muscle, dry powder, dose response (AID 651885); type: functional, cell-based
[25] = T. cruzi growth inhibition in host cells, dose response, cell-based, plate reader, dry powder, set 2 (AID 652275); type: functional
[26] = target: Muscarinic acetylcholine receptor M5 (Homo sapiens, UniProt P08912); assay: potentiation of ACh response at human M5 – cell-based, concentration-response curve, dose response (AID 651878); type: functional
Sequence of Muscarinic acetylcholine receptor M5 (P08912 whole entry): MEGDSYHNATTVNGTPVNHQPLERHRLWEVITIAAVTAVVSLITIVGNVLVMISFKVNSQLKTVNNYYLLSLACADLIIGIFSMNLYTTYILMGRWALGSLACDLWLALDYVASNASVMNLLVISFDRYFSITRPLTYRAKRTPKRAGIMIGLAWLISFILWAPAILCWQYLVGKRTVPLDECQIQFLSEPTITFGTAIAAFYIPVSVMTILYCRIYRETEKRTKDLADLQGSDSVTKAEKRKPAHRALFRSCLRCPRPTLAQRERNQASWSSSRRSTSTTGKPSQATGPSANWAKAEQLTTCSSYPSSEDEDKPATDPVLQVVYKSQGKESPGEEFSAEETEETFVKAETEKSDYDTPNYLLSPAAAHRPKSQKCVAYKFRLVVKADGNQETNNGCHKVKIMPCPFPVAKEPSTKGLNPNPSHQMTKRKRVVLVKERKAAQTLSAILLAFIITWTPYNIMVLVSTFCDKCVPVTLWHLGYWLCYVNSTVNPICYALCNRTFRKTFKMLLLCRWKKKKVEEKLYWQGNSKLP

[27] = viability of BHK-21 cells – cell-based, secondary screen, cytotoxicity control for flavivirus guanylyltransferase probe project (AID 624078); type: functional
[28] = kidney cell line viability loss – HEK293T, luminescence plate reader, powder samples, set 4, cytotoxicity control, dose response (AID 651863); type: functional, cell-based; details: HEK293
Protein Wnt-3a [29] = target: T1, Protein Wnt-3a; assay: SAR analysis of small molecule antagonists of Gli-SUFU in a Wnt3a luminescent reporter assay.; type: functional
HeLa [30] = assay: viability loss in HeLa cells – cell-based, 24 h, cherry-picked samples, cytotoxicity control, dose response (AID 504726); type: functional, Homo sapiens; details: Homo sapiens, 24 h;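 note: potency for cytotoxicity as loss of luminescence signal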
P388/ADR = assay: cells; type: functional; details: Mus musculus
SN12K1 = assay: cells; type: functional; details: Homo sapiens
P388 = assay: cells; type: functional; details: Mus musculus
[31] = target: T2, Small ubiquitin-related modifier 1 (Homo sapiens, UniProt P63165); assay: SUMO1 protein interaction blockers, potency – biochemical, fluorescence polarization, uHTS hits, dose response (AID 624382); type: functional; details: read-out: IC50_Mean
T2 sequence (P63165 whole entry): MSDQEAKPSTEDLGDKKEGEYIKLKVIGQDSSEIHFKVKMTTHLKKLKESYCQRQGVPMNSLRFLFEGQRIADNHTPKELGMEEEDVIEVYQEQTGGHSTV

[32] = target: T2, Small ubiquitin-related modifier 1; assay: SUMO1 protein-protein binding blockers, potency – biochemical, FRET, dose response (AID 624383); type: functional; details: read-out: IC50_Mean
[33] = viability loss in HeLa cells – cytotoxicity control for MgcRacGAP inhibitor project, dose response (AID 624300); type: functional
[34] = target: T3, Rac GTPase-activating protein 1 (Homo sapiens, UniProt Q9H0H5); assay: blockers of MgcRacGAP-driven Rac1 GTP hydrolysis – biochemical, ADP Hunter fluorescence, primary and confirmatory, confirmation (AID 624330); type: functional
T3 sequence (Q9H0H5 whole entry): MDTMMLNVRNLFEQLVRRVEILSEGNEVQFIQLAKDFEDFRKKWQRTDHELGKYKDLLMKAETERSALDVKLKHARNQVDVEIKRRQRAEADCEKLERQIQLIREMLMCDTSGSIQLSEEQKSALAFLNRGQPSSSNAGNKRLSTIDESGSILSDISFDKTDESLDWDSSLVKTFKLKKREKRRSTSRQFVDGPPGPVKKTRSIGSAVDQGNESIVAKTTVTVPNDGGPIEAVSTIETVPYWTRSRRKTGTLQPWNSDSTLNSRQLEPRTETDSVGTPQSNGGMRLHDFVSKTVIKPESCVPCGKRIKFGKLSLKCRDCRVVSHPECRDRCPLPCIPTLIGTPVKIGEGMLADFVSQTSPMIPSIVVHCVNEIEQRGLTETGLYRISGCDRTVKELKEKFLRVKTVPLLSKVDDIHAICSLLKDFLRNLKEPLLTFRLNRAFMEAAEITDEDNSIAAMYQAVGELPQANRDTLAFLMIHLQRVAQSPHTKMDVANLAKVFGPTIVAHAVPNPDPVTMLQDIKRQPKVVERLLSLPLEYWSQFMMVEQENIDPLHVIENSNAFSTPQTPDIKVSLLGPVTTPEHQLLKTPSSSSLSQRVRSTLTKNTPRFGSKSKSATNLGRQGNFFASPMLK

[35] = target: DNA repair protein RAD52 homolog (Homo sapiens, UniProt P43351); type: functional, biochemical
Sequence of DNA repair protein RAD52 homolog (P43351 whole entry): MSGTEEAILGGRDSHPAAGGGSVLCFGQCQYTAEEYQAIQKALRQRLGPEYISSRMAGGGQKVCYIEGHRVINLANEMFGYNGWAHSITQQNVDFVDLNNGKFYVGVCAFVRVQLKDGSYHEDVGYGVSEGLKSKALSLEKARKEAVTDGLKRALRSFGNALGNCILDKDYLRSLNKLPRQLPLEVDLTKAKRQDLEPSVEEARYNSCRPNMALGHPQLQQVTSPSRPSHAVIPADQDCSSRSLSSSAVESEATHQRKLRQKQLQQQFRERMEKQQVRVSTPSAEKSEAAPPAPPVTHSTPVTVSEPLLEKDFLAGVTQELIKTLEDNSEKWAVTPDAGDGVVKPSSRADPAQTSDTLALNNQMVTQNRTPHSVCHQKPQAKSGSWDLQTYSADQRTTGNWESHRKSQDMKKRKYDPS

cells [36] = type: functional, cell-based
[37] = target: T4, Trace amine-associated receptor 1 (Homo sapiens, UniProt Q96RJ0); assay: Fluorescence-based cell-based high throughput dose response assay to identify agonists of the human trace amine associated receptor 1 (TAAR1).; type: functional
T4 sequence (Q96RJ0 whole entry): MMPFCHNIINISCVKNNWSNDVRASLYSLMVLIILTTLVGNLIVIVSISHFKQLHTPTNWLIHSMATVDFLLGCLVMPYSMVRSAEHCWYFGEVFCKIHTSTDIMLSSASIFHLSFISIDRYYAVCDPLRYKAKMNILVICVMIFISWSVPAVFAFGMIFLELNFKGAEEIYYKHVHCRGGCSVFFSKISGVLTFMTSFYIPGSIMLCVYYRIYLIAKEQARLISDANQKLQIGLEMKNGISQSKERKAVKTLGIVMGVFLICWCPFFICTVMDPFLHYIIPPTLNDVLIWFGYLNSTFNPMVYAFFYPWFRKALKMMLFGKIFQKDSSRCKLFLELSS

[38] = target: T4, Trace amine-associated receptor 1; assay: Counterscreen for agonists of the human trace amine associated receptor 1 (hTAAR1): Fluorescence-based cell-based high throughput dose response assay to identify hTAAR1 agonist that also desensitize TAAR1 receptor response.; type: functional
cells [39] = type: functional, cell-based; remark: listed apart in the source
Cytochrome P450 3A4 = Cytochrome P450 3A4 (Homo sapiens, UniProt P08684); details: Potency;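 note: confirmatory qHTS run detecting inhibitors and substrates of CYP3A4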
Sequence of Cytochrome P450 3A4 (P08684 whole entry): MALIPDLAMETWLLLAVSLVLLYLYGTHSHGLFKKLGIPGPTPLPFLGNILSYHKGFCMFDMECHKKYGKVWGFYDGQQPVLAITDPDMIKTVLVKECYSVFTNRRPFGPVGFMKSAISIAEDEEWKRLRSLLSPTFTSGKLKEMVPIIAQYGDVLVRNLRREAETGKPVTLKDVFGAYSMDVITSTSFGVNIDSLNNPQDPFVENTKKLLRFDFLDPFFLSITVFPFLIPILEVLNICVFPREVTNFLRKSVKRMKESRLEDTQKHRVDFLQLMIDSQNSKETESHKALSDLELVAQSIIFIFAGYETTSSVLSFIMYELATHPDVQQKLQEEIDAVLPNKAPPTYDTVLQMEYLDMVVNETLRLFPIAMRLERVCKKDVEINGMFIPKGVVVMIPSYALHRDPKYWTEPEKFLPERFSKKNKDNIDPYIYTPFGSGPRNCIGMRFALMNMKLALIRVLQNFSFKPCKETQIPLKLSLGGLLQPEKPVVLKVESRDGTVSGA

Structure (SMILES): O=C(Cn1cnc2ccccc21)Nc1cccc(S(=O)(=O)N2CCCC2)c1
AC50 [1]: 2.77 µM (active)
AC50 [2]: 50.5 µM (active)
AC50 [3]: 10.1 µM (active)
IC50 (Protein Wnt-3a [4]): 13.1 µM (active)
AC50 [5]: 2.61 µM (active)
AC50 [6]: 1.79 µM (active)

IC50 [7]: > 122 µM (inactive)
Structure (SMILES): O=C(NNC(=S)Nc1ccc(Br)cc1Cl)c1ccco1

Structure (SMILES): O=C(NCC1CC1)c1ccc2c3n(nc2c1)-c1ccccc1CO3
AC50 [8]: 26 µM (active)
CC50 [9]: > 40 µM (active)

Structure (SMILES): COc1ccc(CCNc2c3ccccc3nc3ccccc23)cc1OC
IC50 [10]: 2.4 µM (active)

Structure (SMILES): COc1ccc(C#Cc2ccc([C@H]3[C@H](CO)N4CCCCN(C(=O)Nc5ccccc5)C[C@@H]34)cc2)cc1
AC50 [11]: 6 µM (active)
AC50 [12]: 10 µM (active)

EC50 [13]: 0.298 µM
Structure (SMILES): CS(=O)(=O)N(CC(=O)NCC1CC1)c1cc(C(F)(F)F)ccc1Cl

Structure (SMILES): COc1cccc(S(=O)(=O)Nc2ccc3c(c2)[C@H]2C[C@H](CC(=O)NCc4ccc(Cl)cc4)O[C@@H](CO)[C@H]2O3)c1
AC50 [14]: 9.17 µM (active)
AC50 [15]: 67 µM (active)
AC50 [16]: 1.29 µM (active)
AC50 [17]: 19.4 µM (active)
AC50 [18]: > 70 µM (inactive)

Structure (SMILES): COc1ccccc1CN1CC[C@H]2[C@H](CO)Nc3ccc(C#Cc4ccccc4)cc3[C@H]21
AC50 (HeLa [19]): 10.2 µM (active)
AC50 [20]: > 60 µM (inactive)
AC50 [21]: 1.45 µM (active)
AC50 [22]: 11.4 µM (active)

Structure (SMILES): COc1ccc(C#Cc2ccc3c(c2)O[C@@H](CN(C)C(C)=O)[C@@H](C)CN([C@H](C)CO)S3(=O)=O)cc1
AC50 (HeLa [19]): > 52 µM (inactive)
AC50 (HEK293): 17.8 µM (active)
AC50 [23]: 17.8 µM (active)

Structure (SMILES): CC(C)N1C[C@H](C)[C@@H](CN(C)C(=O)OC(C)(C)C)Oc2c(C(=O)Nc3ccncc3)cccc2C1=O
IC50 [24]: > 20 µM (inactive)

Structure (SMILES): CC(C)N1C[C@H](C)[C@@H](CN(C)Cc2ccc(Oc3ccccc3)cc2)Oc2c(cccc2-c2nnc(-c3ccncc3)o2)C1=O
AC50 [25]: 0.116 µM (active)

EC50 [26]: 1.45 µM (active)
Structure (SMILES): O=C1C(=O)N(CCOc2ccc(Br)cc2)c2ccc(OC(F)(F)F)cc21

Structure (SMILES): Cc1cc(C)c(S(=O)(=O)Nc2cc(SCC(=O)O)c(O)c3ccccc23)c(C)c1
CC50 [27]: 9.03 µM (active)

Structure (SMILES): CC(C)OC(=O)C(C(=O)C(F)(F)F)c1cc(NS(=O)(=O)c2ccccc2)c2ccccc2c1O (stereo not given)
AC50 [28]: 40.4 µM (active)

IC50 (Protein Wnt-3a [29]): > 21.8 µM (inactive)
Structure (SMILES): CCN(CC)c1cc(NC(=O)c2cccc(C#N)c2)ncn1

Structure (SMILES): COc1ccc2[nH]c3c(C)c4cc[n+](C)cc4c(C)c3c2c1
AC50 (HeLa [30]): 65.2 µM (active)
GI50 (P388/ADR): 55.8 µM (inactive)
GI50 (SN12K1): 0.203 µM (active)
GI50 (P388): 0.773 µM (active)
IC50 [31]: > 66.6 µM (inactive)
IC50 [32]: 9.55 µM (active)
CC50 [33]: 100 µM (active)
IC50 [34]: 24.7 µM (active)
AC50 [35]: < 0.15 µM (active)

Structure (SMILES): NCC(=O)c1ccccc1 [PHENACYLAMINE HYDROCHLORIDE]
IC50 (cells [36]): > 29.9 µM (inactive)
EC50 [37]: 1.08 µM (active)
IC50 [38]: 7.42 µM (active)
EC50 (cells [39]): > 29.9 µM (inactive)
AC50 (Cytochrome P450 3A4): 6.31 µM (inconclusive)
